For data set [1], the species on record is Homo sapiens. Nature of the data set: Selectivity ratio of IC50 for human cathepsin S to IC50 for human cathepsin K.
In data set [2] the target is Cathepsin K (Homo sapiens, UniProt P43235). Put plainly: Inhibition of humanized rabbit cathepsin K.
Data set [3] can be described thus: Ratio of product of IC50 for rabbit bone resorption and IC50 for humanized rabbit cathepsin K to IC50 for rabbit cathepsin K.
For data set [4], the species on record is Homo sapiens. Nature of the data set: Selectivity ratio of IC50 for human cathepsin B to IC50 for human cathepsin K.
For data set [5], the species on record is Homo sapiens. Nature of the data set: Selectivity ratio of IC50 for human cathepsin F to IC50 for human cathepsin K.
The species entered for data set [6] is Homo sapiens. Put plainly: Selectivity ratio of IC50 for human cathepsin L to IC50 for human cathepsin K.
Data set [7] in a line: Oral bioavailability in rat at 2 mg/kg, iv. The data set is classed as ADME, organism-based. The conditions noted are these: in vivo.
Data set [8] can be described thus: Half life in dog at 5 mg/kg, po or 1 mg/kg, iv. The data set is classed as ADME, organism-based, Canis lupus familiaris. The following applies: in vivo.
Data set [9] in a line: Half life in rat at 10 mg/kg, po or 2 mg/kg, iv. The data set is classed as ADME, organism-based. The conditions noted are these: in vivo.
Data set [10] can be described thus: Oral bioavailability in dog at 1 mg/kg, iv. It counts as ADME, organism-based, Canis lupus familiaris. The following applies: in vivo.
Data set [11] in a line: Aqueous equilibrium solubility of the compound in water. The data set is classed as physicochemical.
Data set [12] can be described thus: Lipophilicity, log D of the compound. The following applies: octanol/water. It counts as physicochemical.
Data set [13] in a line: Dissociation constant, pKa of the compound. The data set is classed as physicochemical.

Some results are limits rather than exact numbers.

The IC50 is the concentration needed to halve the response being measured. What is called bioavailability is dose-corrected exposure relative to a reference, in per cent. Low values mean poor availability, high ones good availability. The term half-life denotes the time in which the quantity being followed falls by half. High values mean slow loss, low ones fast loss. One may read the solubility (thermodynamic) as the concentration in solution at equilibrium with solid. As usually defined, the logD is lipophilicity at a set pH, counting ionised and neutral species. Read a high logD as a more lipophilic compound. What is called pKa is the negative logarithm of the acid dissociation constant.

Consider `CC(C)C[C@H](N[C@@H](c1ccc(-c2ccc(C(O)C(F)(F)F)cc2)cc1)C(F)F)C(=O)NC1(C#N)CC1` (stereo not given in full), for which the Ratio IC50 in data set [1] was 813; in data set [4], above 5180; in data set [5], 126; in data set [6] it was 785. Besides, the IC50 in data set [2] amounted to 1.9 nM; in data set [3] it was 32 nM.

Take `CC(C)C[C@H](N[C@@H](c1ccc(-c2ccc(S(C)(=O)=O)cc2)cc1)C(F)(F)F)C(=O)NCC#N`: the Ratio IC50 in data set [1] came out at 890; in [4], 26200; in [5], 480; in data set [6], 1320. Further, the IC50 in data set [2] worked out at 0.2 nM; in [3] it was 3 nM.

Consider `CC(C)C[C@H](N[C@@H](c1ccc(-c2ccc(S(C)(=O)=O)cc2)cc1)C(F)F)C(=O)NCC#N`, for which the Ratio IC50 in data set [1] is 2000; in data set [4], above 32600; in data set [5], 822; in [6] it was 869. For the same compound, the IC50 was found to be 0.3 nM in [2] and 15 nM in [3].

For the compound `CC(C)C[C@H](N[C@@H](c1ccc(-c2ccc(C(O)C(F)(F)F)cc2)cc1)C(F)(F)F)C(=O)NC1(C#N)CC1` (stereo not given in full), the Ratio IC50 in [1] amounted to 311; in data set [4] it was 5980; in [6], 506. Moreover, the IC50 in data set [2] is 1.6 nM; in data set [3], 21 nM.

With `CC(C)(F)C[C@H](N[C@@H](c1ccc(-c2ccc(S(C)(=O)=O)cc2)cc1)C(F)F)C(=O)NC1(C#N)CC1`, the Ratio IC50 in data set [1] worked out at 210; in data set [4], 2300; in data set [5], 1920; in data set [6] it was 6330. Also, the IC50 in data set [2] stood at 1 nM; in [3], 9 nM. In addition, the bioavailability was 22% in [7] and 23% in data set [10]. The values for the half-life in data set [8] and in [9] were 35 h and 3.8 h, respectively.

Take `CC(C)C[C@H](N[C@@H](c1ccc(-c2ccc(S(C)(=O)=O)cc2)cc1)C(F)F)C(=O)NC1(C#N)CC1`: the solubility (thermodynamic) in [11] was below 10 µg/mL. Further, the Ratio IC50 in [1] was 1140; in [4], above 11900; in data set [5], 645; in data set [6], 894. The half-maximal inhibitory concentration (IC50) worked out at 0.8 nM in [2] and 10 nM in data set [3]. This compound yielded a bioavailability in data set [7] of 100%. The pH-dependent lipophilicity (logD) in [12] was found to be 0.11. The compound also gave a pKa in data set [13] of 2.7. Besides, the half-life in data set [9] was 0.8 h.

`CC(C)(F)C[C@H](N[C@@H](c1ccc(-c2ccc(C3(C(N)=O)CC3)cc2F)cc1)C(F)(F)F)C(=O)NC1(C#N)CC1`: the Ratio IC50 in data set [1] is 1200; in data set [4], 4400; in data set [5], 1380; in data set [6] it was 9370. In addition, the values for the concentration for half-maximal inhibition (IC50) in [2] and in data set [3] were 0.3 nM and 2 nM, respectively.

Turning to `CC(C)C[C@H](N[C@@H](c1ccc(-c2ccc(S(C)(=O)=O)cc2)cc1)C(F)(F)F)C(=O)NC1(C#N)CC1`, the solubility (thermodynamic) in [11] was below 10 µg/mL. Moreover, the Ratio IC50 in data set [1] was determined as 809; in data set [4] it was 23600; in data set [5] it was 370; in [6], 1390. Moreover, the values for the half-maximal inhibitory concentration (IC50) in data set [2] and in data set [3] were 0.3 nM and 3 nM, respectively. In addition, the bioavailability in [7] amounted to 4%. Moreover, in [12], the log distribution coefficient (logD) turned out to be 3.53. In data set [13], this compound gave a pKa below 2. The same compound had a half-life in data set [9] of 2.6 h.

Regarding `CC(C)(F)C[C@H](N[C@@H](c1ccc(-c2ccc(C3(C(N)=O)CC3)cc2F)cc1)C(F)F)C(=O)NC1(C#N)CC1`, the Ratio IC50 in data set [1] was determined as 2880; in [4], 7230; in data set [5], 2340; in data set [6], 12700. The IC50 in data set [2] is 0.3 nM; in data set [3] it was 4 nM.

Take `CC(C)(F)C[C@H](N[C@@H](c1ccc(-c2ccc(S(C)(=O)=O)cc2)cc1)C(F)(F)F)C(=O)NC1(C#N)CC1` [ODANACATIB]: the Ratio IC50 was found to be 300 in [1], 5170 in data set [4], 3980 in data set [5] and 15000 in data set [6]. The 50% inhibitory concentration (IC50) in data set [2] turned out to be 0.2 nM; in [3], 5 nM. Moreover, the bioavailability in data set [7] is 8%; in [10], 6%.

The values above are taken from ChEMBL document CHEMBL1667813, “Difluoroethylamines as an amide isostere in inhibitors of cathepsin K” (Bioorg Med Chem Lett, 2011).
